Assay results: US8871767B2, “2-arylimidazo[1,2-B]pyridazine, 2-phenylimidazo[1,2-A]pyridine, and 2-phenylimidazo[1,2-A]pyrazine derivatives” (Hengrui (USA) Ltd., priority 2010, dated 2014)
Like-named read-outs stand apart in the source and are kept apart here.

Legend:
[1] = tested on: Hedgehog pathway activation on 10T1/2/Smo#3 cells (C3H10T1/2 cells transfected with human Smoothened receptor); assay: Hedgehog pathway activation on 10T1/2/Smo#3 cells measured by ALP activity; format: cell-based; conditions: Mus musculus, C3H 10T1/2, 10T1/2/Smo#3 cells
Procedure, shortened: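 Inhibition of alkaline phosphatase induction, read fluorometrically from 4-methylumbelliferyl phosphate conversion, gave IC50 values; CellTiter-Blue tracked viability in parallel. Cells were the human Smo-transfected 10T1/2/Smo#3 pool, stimulated by 10-20% hShh conditioned medium or the Smo agonist SAG (500 nM).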

[2] = tested on: Hedgehog pathway activation (GLi-luciferase reporter) in Shh Light II reporter cells; assay: Hedgehog pathway activation on Shh Light II reporter cells measured by luciferase activity; format: cell-based; conditions: Mus musculus, Shh Light II
Procedure, shortened: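 Shh Light II reporter cells carrying a hedgehog-responsive GLi-luciferase reporter were stimulated either with 500 nM SAG, a direct Smoothened agonist, or with conditioned media containing human Sonic Hedgehog (hShh). Test compounds were evaluated for blocking this pathway activation, quantified by luciferase activity. Cell viability was monitored in parallel with the Celltiter-Blue® assay.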

[3] = hShh activation, ALP activity, read-out: 10T1/2/Smo#3 ALP activity (hShh Activation)
[4] = measured by ALP activity, read-out: ALP (IC50, inhibition of Hedgehog pathway activation)
[5] = SAG activation (500 nM SAG), read-out: Shh Light II luciferase activity (SAG activation)
[6] = hShh activation, read-out: Shh (IC50, inhibition of Hedgehog pathway activation)
[7] = hShh activation, read-out: Shh Light II luciferase activity (hShh activation)

Row | Compound | IC50 [1, 3] [nM] | IC50 [1, 4] [nM] | IC50 [2, 5] [nM] | IC50 [2, 6] [nM] | IC50 [2, 7] [nM]
1 | CC(C)(C)C(=O)Nc1cc(-c2cn3nc(N4CCC(F)(F)CC4)ccc3n2)ccc1C(F)(F)F [Example 235, N-(5-(6-(4,4-difluoropiperidin-1-yl)imidazo[1,2-b]pyridazin-2-yl)-2-(trifluoromethyl)phenyl)pivalamide] | < 300 | 271 | 300 to 3000 | 318 | < 300
2 | CC(C)(C)C(=O)Nc1cc(-c2cn3nc(-c4ccc(Cl)cc4)ccc3n2)ccc1C(F)(F)F [Example 238, N-(5-(6-(4-chlorophenyl)imidazo[1,2-b]pyridazin-2-yl)-2-(trifluoromethyl)phenyl)pivalamide] |  | 230 |  | 625 | 
3 | Cc1ccc(-c2ccc3nc(-c4ccc(C(F)(F)F)c(NC(=O)C(C)(C)C)c4)cn3n2)cc1 [Example 239, N-(5-(6-p-tolylimidazo[1,2-b]pyridazin-2-yl)-2-(trifluoromethyl)phenyl)pivalamide] |  | 335 |  | 523 | 
4 | CC(C)(C)C(=O)Nc1cc(-c2cn3nc(-c4cccc(O)c4)ccc3n2)ccc1C(F)(F)F [Example 242, N-(5-(6-(3-hydroxyphenyl)imidazo[1,2-b]pyridazin-2-yl)-2-(trifluoromethyl)phenyl)pivalamide] |  | 446 |  | 402 | 
5 | CC(C)(C)C(=O)Nc1cc(-c2cn3nc(-c4ccc(O)cc4)ccc3n2)ccc1C(F)(F)F [Example 243, N-(5-(6-(4-hydroxyphenyl)imidazo[1,2-b]pyridazin-2-yl)-2-(trifluoromethyl)phenyl)pivalamide] |  | 295 |  | 306 | 
6 | COc1ccc(-c2ccc3nc(-c4ccc(C(F)(F)F)c(NC(=O)C(C)(C)C)c4)cn3n2)cc1 [Example 244, N-(5-(6-(4-methoxyphenyl)imidazo[1,2-b]pyridazin-2-yl)-2-(trifluoromethyl)phenyl)pivalamide] |  | 1630 |  | 308 | 
7 | COc1ccc2nc(-c3ccc(OC(F)(F)F)c(NC(=O)C(C)(C)C)c3)cn2n1 [Example 247, N-(5-(6-methoxyimidazo[1,2-b]pyridazin-2-yl)-2-(trifluoromethoxy)phenyl)pivalamide] | < 300 | 1860 | < 300 |  | < 300
8 | CC(C)(C)C(=O)Nc1cc(-c2cn3nc(-c4ccccc4F)ccc3n2)ccc1OC(F)(F)F [Example 248, N-(5-(6-(2-fluorophenyl)imidazo[1,2-b]pyridazin-2-yl)-2-(trifluoromethoxy)phenyl)pivalamide] | < 300 | 231 | 300 to 3000 |  | 300 to 3000
9 | CC(C)Oc1ccc(F)c(-c2ccc3nc(-c4ccc(C(F)(F)F)c(NC(=O)C(C)(C)C)c4)cn3n2)c1 [Example 252, N-(5-(6-(2-fluoro-5-isopropoxyphenyl)imidazo[1,2-b]pyridazin-2-yl)-2-(trifluoromethyl)phenyl)pivalamide] |  | 392 |  | 722 | 
10 | CCCOc1ccc(F)c(-c2ccc3nc(-c4ccc(C(F)(F)F)c(NC(=O)C(C)(C)C)c4)cn3n2)c1 [Example 253, N-(5-(6-(2-fluoro-5-propoxyphenyl)imidazo[1,2-b]pyridazin-2-yl)-2-(trifluoromethyl)phenyl)pivalamide] |  | 448 |  | 899 | 
11 | CC(=O)Nc1ccccc1-c1ccc2nc(-c3ccc(C(F)(F)F)c(NC(=O)C(C)(C)C)c3)cn2n1 [Example 255, N-(5-(6-(2-acetamidophenyl)imidazo[1,2-b]pyridazin-2-yl)-2-(trifluoromethyl)phenyl)pivalamide] |  | 490 |  | 563 | 
12 | CN(C)c1cccc(-c2ccc3nc(-c4ccc(C(F)(F)F)c(NC(=O)C(C)(C)C)c4)cn3n2)c1 [Example 256, N-(5-(6-(3-(dimethylamino)phenyl)imidazo[1,2-b]pyridazin-2-yl)-2-(trifluoromethyl)phenyl)pivalamide] |  | 446 |  | 1140 | 
13 | Cc1ccc(-c2cn3nc(-c4cccc(C(F)(F)F)c4)ccc3n2)cc1NC(=O)C(C)(C)C [Example 260, N-(2-methyl-5-(6-(3-(trifluoromethyl)phenyl)imidazo[1,2-b]pyridazin-2-yl)phenyl)pivalamide] |  | 325 |  | 297 | 
14 | Cc1ccc(-c2cn3nc(-c4cccc(O)c4)ccc3n2)cc1NC(=O)C(C)(C)C [Example 264, N-(5-(6-(3-hydroxyphenyl)imidazo[1,2-b]pyridazin-2-yl)-2-methylphenyl)pivalamide] |  | 544 |  | 2010 | 
15 | CC(C)(C)C(=O)Nc1cc(-c2cn3nc(N4CCC(O)CC4)ccc3n2)ccc1C1CC1 [Example 273, N-(2-cyclopropyl-5-(6-(4-hydroxypiperidin-1-yl)imidazo[1,2-b]pyridazin-2-yl)phenyl)pivalamide] | 300 to 3000 | 442 | 3000 to 30000 |  | 3000 to 30000
16 | Cc1ccc(-c2cn3nc(-c4ccc(F)nc4F)ccc3n2)cc1NC(=O)C(C)(C)C [Example 280, N-(5-(6-(2,6-difluoropyridin-3-yl)imidazo[1,2-b]pyridazin-2-yl)-2-methylphenyl)pivalamide] |  | 236 |  | 475 | 

The next lines start with the values.

Row | IC50 [1, 3] [nM] | IC50 [1, 4] [nM] | IC50 [2, 5] [nM] | IC50 [2, 6] [nM] | IC50 [2, 7] [nM] | Compound
17 |  | 100 |  | 289 |  | CC(C)(C)C(=O)Nc1cc(-c2cn3nc(N4CCC(F)(F)C4)ccc3n2)ccc1C(F)(F)F [Example 236, N-(5-(6-(3,3-difluoropyrrolidin-1-yl)imidazo[1,2-b]pyridazin-2-yl)-2-(trifluoromethyl)phenyl)pivalamide]
18 |  | 211 |  | 245 |  | CC(C)(C)C(=O)Nc1cc(-c2cn3nc(N4CCC(O)CC4)ccc3n2)ccc1C(F)(F)F [Example 237, N-(5-(6-(4-hydroxypiperidin-1-yl)imidazo[1,2-b]pyridazin-2-yl)-2-(trifluoromethyl)phenyl)pivalamide]
19 |  | 70 |  | 326 |  | CC(C)(C)C(=O)Nc1cc(-c2cn3nc(-c4ccccc4OC(F)(F)F)ccc3n2)ccc1C(F)(F)F [Example 240, N-(5-(6-(2-(trifluoromethoxy)phenyl)imidazo[1,2-b]pyridazin-2-yl)-2-(trifluoromethyl)phenyl)pivalamide]
20 |  | 96 |  | 208 |  | Cc1ccccc1-c1ccc2nc(-c3ccc(C(F)(F)F)c(NC(=O)C(C)(C)C)c3)cn2n1 [Example 241, N-(5-(6-o-tolylimidazo[1,2-b]pyridazin-2-yl)-2-(trifluoromethyl)phenyl)pivalamide]
21 |  | 105 |  | 129 |  | Cc1ccc(-c2cn3nc(-c4ccccc4Cl)ccc3n2)cc1NC(=O)C(C)(C)C [Example 258, N-(5-(6-(2-chlorophenyl)imidazo[1,2-b]pyridazin-2-yl)-2-methylphenyl)pivalamide]
22 |  | 80 |  | 84 |  | Cc1ccc(-c2cn3nc(-c4ccccc4C(F)(F)F)ccc3n2)cc1NC(=O)C(C)(C)C [Example 259, N-(2-methyl-5-(6-(2-(trifluoromethyl)phenyl)imidazo[1,2-b]pyridazin-2-yl)phenyl)pivalamide]
23 |  | 91 |  | 142 |  | Cc1ccc(-c2cn3nc(-c4cc(F)ccc4F)ccc3n2)cc1NC(=O)C(C)(C)C [Example 261, N-(5-(6-(2,5-difluorophenyl)imidazo[1,2-b]pyridazin-2-yl)-2-methylphenyl)pivalamide]
24 |  | 103 |  | 342 |  | Cc1ccc(-c2cn3nc(-c4cc(Cl)ccc4F)ccc3n2)cc1NC(=O)C(C)(C)C [Example 262, N-(5-(6-(5-chloro-2-fluorophenyl)imidazo[1,2-b]pyridazin-2-yl)-2-methylphenyl)pivalamide]
25 |  | 102 |  | 228 |  | Cc1ccc(-c2cn3nc(-c4ccccc4OC(F)(F)F)ccc3n2)cc1NC(=O)C(C)(C)C [Example 263, N-(2-methyl-5-(6-(2-(trifluoromethoxy)phenyl)imidazo[1,2-b]pyridazin-2-yl)phenyl)pivalamide]
26 |  | 82 |  | 83 |  | Cc1ccc(-c2cn3nc(-c4cccnc4F)ccc3n2)cc1NC(=O)C(C)(C)C [Example 265, N-(5-(6-(2-fluoropyridin-3-yl)imidazo[1,2-b]pyridazin-2-yl)-2-methylphenyl)pivalamide]
27 |  | 20 |  | 144 |  | Cc1ccc(-c2cn3nc(-c4cc(C#N)ccc4F)ccc3n2)cc1NC(=O)C(C)(C)C [Example 274, N-(5-(6-(5-cyano-2-fluorophenyl)imidazo[1,2-b]pyridazin-2-yl)-2-methylphenyl)pivalamide]
28 |  | 228 |  | 162 |  | Cc1ccc(-c2cn3nc(-c4cccnc4C)ccc3n2)cc1NC(=O)C(C)(C)C [Example 278, N-(2-methyl-5-(6-(2-methylpyridin-3-yl)imidazo[1,2-b]pyridazin-2-yl)phenyl)pivalamide]
29 |  | 129 |  | 282 |  | Cc1ccc(-c2cn3nc(-c4cc(Cl)cnc4F)ccc3n2)cc1NC(=O)C(C)(C)C [Example 279, N-(5-(6-(5-chloro-2-fluoropyridin-3-yl)imidazo[1,2-b]pyridazin-2-yl)-2-methylphenyl)pivalamide]
30 |  | 38 |  | 72 |  | Cc1ccc(-c2cn3nc(-c4cc(F)ccc4C(F)(F)F)ccc3n2)cc1NC(=O)C(C)(C)C [Example 281, N-(5-(6-(5-fluoro-2-(trifluoromethyl)phenyl)imidazo[1,2-b]pyridazin-2-yl)-2-methylphenyl)pivalamide]
